In series [1] the test system is cervical adenocarcinoma HeLa cells. The series is described as follows: Cell viability MTT assay, HeLa. The class given is cell-based, human.
Series [2] has the same test system. The series can be described thus: Cell viability neutral red uptake assay, HeLa. It counts as cell-based, human. The conditions noted are these: read-out: IC50 values ± SD in neutral red uptake assay.
Series [3] deals with endometrial adenocarcinoma Ishikawa cells. The series is described as follows: Cell viability neutral red uptake assay, Ishikawa. The class given is cell-based, human. The conditions noted are these: read-out: IC50 values ± SD in neutral red uptake assay.
Series [4] has as its system normal fibroblasts (dermal fibroblasts CCD25Sk). The series is described as follows: Cell viability MTT assay, fibroblasts. It counts as cell-based, human. The conditions noted are these: for IC50: Fibroblasts, read-out: IC50 values ± SD in MTT assay.
The subject of series [5] is breast epithelial cells MCF 10A. The series is described as follows: Cell viability MTT assay, MCF 10A. The class given is cell-based, human. The conditions noted are these: 48 h. For orientation: Tetrazolium dyes change colour on reduction, which living cells bring about.
For series [6], the system named is normal fibroblasts (dermal fibroblasts CCD25Sk). The series is described as follows: Cell viability neutral red uptake assay, fibroblasts. It counts as cell-based, human. The conditions noted are these: read-out: IC50 values ± SD in neutral red uptake assay.
Series [7] concerns endometrial adenocarcinoma Ishikawa cells. The series is described as follows: Cell viability MTT assay, Ishikawa. It counts as cell-based, human. The conditions noted are these: read-out: IC50 values ± SD in MTT assay.
The subject of series [8] is cervical adenocarcinoma HeLa cells. The conditions noted are these: cited from earlier work; for IC50: HeLa, ref Souza et al., 2017, read-out: IC50 determined by MTT assay.
Where [9] appears, read: HeLa, 24 h, read-out: IC50 values ± SD in MTT assay.
Setting [10] is: HeLa, 48 h, read-out: IC50 values ± SD in MTT assay.
The mark [11] stands for this setting: Homo sapiens, HeLa, 24 h, HeLa, 24 h, read-out: IC50 values ± SD in MTT assay.
Setting [12] is: Homo sapiens, HeLa, 48 h, HeLa, 48 h, read-out: IC50 values ± SD in MTT assay.

Where two headings read alike, the source gives them in different places. Where only a bound is given, the exact number is not on record here.

By IC50 is commonly meant the concentration needed to halve the response being measured. On to `N.N.[Cl][Pt][Cl]` [cisplatin, reference compound], for which the IC50 in series [1] (setting [9]) worked out at 30 ± 2.7 µM; in series [1] (setting [10]), 9.4 ± 1.3 µM; in series [2] (24 h), 20 ± 2.7 µM; in series [2] (48 h), 9.7 ± 2.3 µM; in series [3] (24 h), 28.1 ± 2 µM; in series [3] (48 h), 11.7 ± 2.2 µM. Moreover, the IC50 was over 50 µM in series [4] (24 h); 40.5 ± 4.3 µM in series [4] (48 h); 17.8 ± 2.3 µM in series [5]; over 50 µM in series [6] (24 h); 43.1 ± 3.5 µM in series [6] (48 h); over 50 µM in series [7] (24 h, listed as Cisplatin). Moreover, the IC50 in series [7] (24 h) is over 50 µM; in series [7] (48 h), 12 ± 2 µM.

Regarding `O=c1c(O)c(-c2ccc(O)c(O)c2)oc2cc(O)cc(O)c12` [quercetin], the half-maximal inhibitory concentration (IC50) in series [1] (setting [11]) is over 50 µM; in series [1] (setting [12]) it was over 50 µM; in series [2] (Homo sapiens, 24 h) it was 39.1 ± 3.2 µM; in series [2] (Homo sapiens, 48 h), 36.9 ± 2 µM; in series [3] (Homo sapiens, 24 h), over 50 µM; in series [3] (Homo sapiens, 48 h) it was 42.9 ± 3.8 µM. Moreover, the IC50 in series [4] (Homo sapiens, Fibroblast, 24 h) is over 50 µM; in series [4] (Homo sapiens, Fibroblast, 48 h), over 50 µM; in series [6] (Homo sapiens, Fibroblast, 24 h) it was over 50 µM; in series [6] (Homo sapiens, Fibroblast, 48 h), over 50 µM; in series [7] (Homo sapiens, 24 h), over 50 µM; in series [7] (Homo sapiens, 48 h), 45.4 ± 4.1 µM.

As to `COc1ccc(-c2oc3cc(O)cc(O)c3c(=O)c2OC)cc1` [ermanin], the IC50 in series [1] (setting [11]) is over 50 µM; in series [1] (setting [12]), 31.8 ± 2.4 µM; in series [2] (Homo sapiens, 24 h) it was 39 ± 2.9 µM; in series [2] (Homo sapiens, 48 h), 33.2 ± 1.9 µM; in series [3] (Homo sapiens, 24 h), over 50 µM; in series [3] (Homo sapiens, 48 h) it was 46.7 ± 3.2 µM. In addition, the IC50 in series [4] (Homo sapiens, Fibroblast, 24 h) was over 50 µM; in series [4] (Homo sapiens, Fibroblast, 48 h), over 50 µM; in series [6] (Homo sapiens, Fibroblast, 24 h), over 50 µM; in series [6] (Homo sapiens, Fibroblast, 48 h), over 50 µM; in series [7] (Homo sapiens, 24 h), over 50 µM; in series [7] (Homo sapiens, 48 h) it was over 50 µM.

As to `COc1cc2oc(-c3ccc(O)cc3)cc(=O)c2c(O)c1OC` [cirsimaritin], the half-maximal inhibitory concentration (IC50) in series [1] (setting [11]) was 36.6 ± 2.2 µM; in series [1] (setting [12]) it was 16 ± 1.9 µM; in series [2] (Homo sapiens, 24 h), 17.5 ± 2.4 µM; in series [2] (Homo sapiens, 48 h) it was 13.9 ± 1.4 µM; in series [3] (Homo sapiens, 24 h) it was 34.2 ± 2.7 µM; in series [3] (Homo sapiens, 48 h) it was 26.1 ± 2.1 µM. Moreover, the IC50 was over 50 µM in series [4] (Homo sapiens, Fibroblast, 24 h); over 50 µM in series [4] (Homo sapiens, Fibroblast, 48 h); over 50 µM in series [6] (Homo sapiens, Fibroblast, 24 h); over 50 µM in series [6] (Homo sapiens, Fibroblast, 48 h); over 50 µM in series [7] (24 h); over 50 µM in series [7] (Homo sapiens, 24 h). For the same compound, the IC50 in series [7] (Homo sapiens, 48 h) came to 19.6 ± 2.6 µM.

As for `COc1cc(O)c2c(=O)c(OC)c(-c3ccc(O)cc3)oc2c1` [kumatakenin], the IC50 is over 50 µM in series [1] (setting [11]); over 50 µM in series [1] (setting [12]); over 50 µM in series [2] (Homo sapiens, 24 h); over 50 µM in series [2] (Homo sapiens, 48 h); over 50 µM in series [3] (Homo sapiens, 24 h); over 50 µM in series [3] (Homo sapiens, 48 h). Further, the IC50 was found to be 47 ± 5.6 µM in series [4] (Homo sapiens, Fibroblast, 24 h); 42.9 ± 4.3 µM in series [4] (Homo sapiens, Fibroblast, 48 h); 35.7 ± 2.5 µM in series [6] (Homo sapiens, Fibroblast, 24 h); 15.3 ± 2.3 µM in series [6] (Homo sapiens, Fibroblast, 48 h); 30.5 ± 2 µM in series [7] (Homo sapiens, 24 h); 24.2 ± 1.8 µM in series [7] (Homo sapiens, 48 h). Moreover, the “effect on viability of fibroblasts” value in series [4] (fibroblasts, MTT and neutral red uptake assays, 24 and 48 h) is “significantly decreased viability”.

As for `COc1cc(O)c2c(c1)O[C@H](c1ccc(O)cc1)CC2=O` [sakuranetin], the IC50 in series [1] (setting [11]) is over 50 µM; in series [1] (setting [12]) it was over 50 µM; in series [1] (Homo sapiens, HeLa, cancer cells (HeLa and Ishikawa), MTT and neutral red uptake assays, 24 and 48 h, read-out: IC50, viability of cancer cells), over 50 µM; in series [2] (Homo sapiens, 24 h), over 50 µM; in series [2] (Homo sapiens, 48 h) it was over 50 µM; in series [3] (Homo sapiens, 24 h), over 50 µM. The IC50 in series [3] (Homo sapiens, 48 h) is over 50 µM; in series [4] (Homo sapiens, Fibroblast, 24 h) it was over 50 µM; in series [4] (Homo sapiens, Fibroblast, 48 h), over 50 µM; in series [6] (Homo sapiens, Fibroblast, 24 h), over 50 µM; in series [6] (Homo sapiens, Fibroblast, 48 h), over 50 µM; in series [7] (Homo sapiens, 24 h) it was over 50 µM. Also, the IC50 in series [7] (Homo sapiens, 48 h) is over 50 µM.

Take `O=c1cc(-c2ccc(O)c(O)c2)oc2cc(O)cc(O)c12` [luteolin, reference compound]: the IC50 was 42.8 ± 3.6 µM in series [1] (setting [11]); 31.5 ± 2.5 µM in series [2] (Homo sapiens, 24 h); about 28 µM in series [2] (Homo sapiens, 48 h); over 50 µM in series [3] (Homo sapiens, 24 h); 31.6 ± 2.9 µM in series [3] (Homo sapiens, 48 h); over 50 µM in series [4] (Homo sapiens, Fibroblast, 24 h). Moreover, the IC50 was over 50 µM in series [4] (Homo sapiens, Fibroblast, 48 h); 8.4 ± 1.5 µM in series [5] (Homo sapiens); over 50 µM in series [6] (Homo sapiens, Fibroblast, 24 h); over 50 µM in series [6] (Homo sapiens, Fibroblast, 48 h); over 50 µM in series [7] (Homo sapiens, 24 h); 25.9 ± 2.5 µM in series [7] (Homo sapiens, 48 h). The “reduction in HeLa cell viability” value in series [8] (20 μM luteolin, MTT assay, 48 h time point, ref Raina et al., 2021) is “about 50%”.

With `O=c1cc(-c2ccc(O)cc2)oc2cc(O)cc(O)c12` [apigenin, reference compound], the IC50 was about 30 µM in series [1] (setting [11]); about 17.9 µM in series [1] (setting [12]); about 27 µM in series [2] (Homo sapiens, 24 h); about 14.2 µM in series [2] (Homo sapiens, 48 h); over 50 µM in series [3] (Homo sapiens, 24 h); 38 ± 2.1 µM in series [3] (Homo sapiens, 48 h). Further, the IC50 in series [4] (Homo sapiens, Fibroblast, 24 h) was over 50 µM; in series [4] (Homo sapiens, Fibroblast, 48 h) it was over 50 µM; in series [5] (Homo sapiens), 14.5 ± 1.8 µM; in series [6] (Homo sapiens, Fibroblast, 24 h), over 50 µM; in series [6] (Homo sapiens, Fibroblast, 48 h), 48.6 ± 3.1 µM; in series [8] (24 h), about 38 µM. In addition, the IC50 is about 10 µM in series [8] (48 h); over 50 µM in series [7] (Homo sapiens, 24 h); 33.1 ± 2.2 µM in series [7] (Homo sapiens, 48 h).

Turning to `COc1ccc(C2CC(=O)c3c(O)cc(OC)cc3O2)cc1` (centres unmarked) [naringenin 7,4′-O-dimethyl ether], the IC50 was over 50 µM in series [1] (setting [9]); over 50 µM in series [1] (setting [10]); over 50 µM in series [1] (cancer cells (HeLa and Ishikawa), MTT and neutral red uptake assays, 24 and 48 h, read-out: IC50, viability of cancer cells); over 50 µM in series [2] (24 h); over 50 µM in series [2] (48 h); over 50 µM in series [3] (24 h). In addition, the IC50 in series [3] (48 h), in series [4] (24 h), in series [4] (48 h), in series [6] (24 h), in series [6] (48 h) and in series [7] (24 h) was over 50 µM each time. Further, the IC50 in series [7] (48 h) was over 50 µM.

With `COc1ccc(-c2cc(=O)c3c(O)cc(OC)cc3o2)cc1` [apigenin 7,4′-O-dimethyl ether], the IC50 in series [1] (setting [9]), in series [1] (setting [10]), in series [2] (24 h), in series [2] (48 h), in series [3] (24 h) and in series [3] (48 h) was over 50 µM in each case. In addition, the IC50 in series [4] (24 h) was 18 ± 3.9 µM; in series [4] (48 h) it was 10.9 ± 4.6 µM; in series [6] (24 h) it was 27.6 ± 2.8 µM; in series [6] (48 h), 7.6 ± 1.1 µM; in series [7] (24 h) it was 26.2 ± 1.9 µM; in series [7] (48 h), 20.9 ± 1.4 µM. For the same compound, in series [4], the “effect on viability of fibroblasts” value is “significantly decreased viability”.

On to `O=c1c(O)c(-c2ccc(O)cc2)oc2cc(O)cc(O)c12` [kaempferol], for which the IC50 in series [1] (setting [11]) was over 50 µM; in series [1] (setting [12]), over 50 µM; in series [2] (Homo sapiens, 24 h), over 50 µM; in series [2] (Homo sapiens, 48 h), 38.3 ± 2.5 µM; in series [3] (Homo sapiens, 24 h) it was over 50 µM; in series [3] (Homo sapiens, 48 h) it was over 50 µM. Also, the IC50 in series [4] (Homo sapiens, Fibroblast, 24 h) was over 50 µM; in series [4] (Homo sapiens, Fibroblast, 48 h), over 50 µM; in series [6] (Homo sapiens, Fibroblast, 24 h), over 50 µM; in series [6] (Homo sapiens, Fibroblast, 48 h) it was over 50 µM; in series [7] (Homo sapiens, 24 h), over 50 µM; in series [7] (Homo sapiens, 48 h) it was over 50 µM.

These data come from paper PMC10512030, “Prolidase-proline oxidase axis is engaged in apoptosis induction by birch buds flavonol santin in endometrial adenocarcinoma cell line” (Frontiers in Molecular Biosciences, 2023).
